{"source": "patent US20100172870A1", "about": "“METHODS, USES AND COMPOSITIONS FOR MODULATING REPLICATION OF HCV THROUGH THE FARNESOID X RECEPTOR (FXR) ACTIVATION OR INHIBITION” (priority 2006, published 2010)", "key": {"[1]": {"system": "genotype 1b replicon (R1b)", "test": "HCV subgenomic replicon R1b luciferase assay", "format": "cell-based, hepatitis C virus (HCV)", "excerpt": "(§1) Replicons: Three subgenomic replicons were used in this study: two replicative forms called R1a and R1b according to their genotype origin and a derivative of the R1b replicon with a mutation in the RNA-dependant RNA polymerase (Rp-del) which is thus unable to replicate and was used as a negative control in all experiments. They are bicistronic RNAs which contains the firefly luciferase (Photinus pyralis) reporter gene downstream of the HCV IRES and the sequence coding for the polyprotein NS3 to NS5B downstream of the encephalomyocarditis virus (EMCV) IRES.\nRNA transfection: The replicons were transfected into Huh7 cells by electroporation.\nSubconfluent monolayers of Huh7 cells were detached from the culture dish by trypsin treatment and rinsing with complete DMEM. […] 400 μL of the cell suspension was mixed by gentle pipetting with 8 μg RNA (R1a, R1b or Rp-del) and transferred into an electroporation cuvette with a gap-width of 0.4 cm (BioRad). The mixture was immediately subjected to one electric pulse at 270 V, 950 μF and maximum resistance using a Gene Pulser System (BioRad).\nAfter electroporation the 400 μL of each cell suspension was diluted in 9 mL complete DMEM and pooled together before being seeded onto 24-well plates (1 mL per well).\nLuciferase Assay: Cells were washed with PBS and scraped off the plate with 80 μL of 1× Luciferase Cell Culture Lysis Reagent (Promega). 40 μL of the lysate were transferred to a 96-well plate and mixed with 200 μL of Luciferase Assay Reagent (Promega). Luminescence expressed as relative light units (RLU) was measured immediately on a scintillation counter (Top Count NXT, Perkin Elmer) for 10 s.\n(§2) The data are averages from triplicate cultures. […] The values are expressed as relative ratios of the values obtained 4 h after electroporation. Unless otherwise stated, the RLU values were determined 72 h after transfection when cells were confluent."}, "[2]": {"system": "genotype 1a replicon (R1a)", "test": "HCV subgenomic replicon R1a luciferase assay", "format": "cell-based, hepatitis C virus (HCV)", "conditions": "Huh7-Lunet cells, 72 h of treatment, CDCA 100 μM or GGS 10 μM", "excerpt": "as §1, with “IRES. […]” for “IRES.”\nSubconfluent monolayers of Huh7 cells were detached from the culture dish by trypsin treatment and rinsing with complete DMEM. The cells were washed once with phosphate buffer saline (PBS), counted and resuspended at 10^7 cells per mL in Cytomix buffer (Van den Hoff, M J. Et al. 1992). […]\nLuciferase Assay: Cells were washed with PBS and scraped off the plate with 80 μL of 1× Luciferase Cell Culture Lysis Reagent (Promega). […] Luminescence expressed as relative light units (RLU) was measured immediately on a scintillation counter (Top Count NXT, Perkin Elmer) for 10 s.\nas §2"}, "[3]": {"system": "replicon transfected cells (Huh7)", "test": "Toxicity for Huh7 / replicon transfected cells", "format": "cell-based, human", "excerpt": "BAs, sterols and fatty acids are structurally related natural ligands of the NR1 family of nuclear receptors expressed in the liver and intestine. […] BAs were recently described as the natural ligands for FXR (Makishima M. et al. 2002; Parks D J. et al. 1999). To examine whether BAs were mediating their effects on HCV RNA replication through FXR we tested a panel of FXR ligands including the two formerly described FXR ligands that activate FXR at supraphysiological concentrations, farnesol and the synthetic retinoid TTNPB at a concentration of 10 μM each and other BAs such as CA, LCA, and UDCA, all at a concentration of 100 μM (FIG. 4B)."}, "FXR": {"target": "T1, FXR (Homo sapiens, UniProt Q96RI1)", "T1 construct": "host or cells: HepG2", "T1 sequence (Q96RI1 1-486)": "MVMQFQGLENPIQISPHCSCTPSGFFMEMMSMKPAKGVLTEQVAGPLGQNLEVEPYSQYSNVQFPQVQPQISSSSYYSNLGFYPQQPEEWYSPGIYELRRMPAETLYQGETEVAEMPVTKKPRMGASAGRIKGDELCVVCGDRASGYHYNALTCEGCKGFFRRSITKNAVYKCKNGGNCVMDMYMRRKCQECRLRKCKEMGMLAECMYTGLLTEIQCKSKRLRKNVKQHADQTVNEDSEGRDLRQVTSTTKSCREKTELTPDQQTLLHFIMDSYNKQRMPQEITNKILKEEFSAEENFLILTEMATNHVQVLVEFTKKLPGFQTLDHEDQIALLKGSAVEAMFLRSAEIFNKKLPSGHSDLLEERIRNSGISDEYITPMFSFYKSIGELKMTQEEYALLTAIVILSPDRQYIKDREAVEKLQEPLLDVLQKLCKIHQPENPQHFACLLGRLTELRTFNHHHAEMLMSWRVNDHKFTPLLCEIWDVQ", "conditions": "Urizar N L. et al. 2002, cited from earlier work"}, "[4]": {"system": "non-structural proteins NS4a and NS5a in R1b-transfected cells", "test": "HCV protein expression by immunofluorescence staining and FACS analysis", "format": "cell-based, hepatitis C virus (HCV)", "conditions": "for NS5a positive cells by FACS analysis: 3 days of treatment (untreated 22%); for mean fluorescence intensity in the positive cells: NS5a-labeling, 3 days (untreated 16)", "protocol": "Immunofluorescence staining: Three days after electroporation, cells were plated in 8-well chamber slides at a density of 5×10^4 cells per well. 24 hours after, slides were washed in PBS and fixed in ⅔ acetone-ethanol for 5 minutes at −20° C. followed by 50 minutes block in PBS-glycin 0.2M. Primary antibodies were added to the cells at a 1:500 dilution in PBS-glycin 0.2M for 1 h at room temperature. After 3 washes in PBS, fluorescein conjugated secondary antibodies (Jackson ImmunoResearch) were added to the cells at a 1:50 dilution in PBS-glycin 0.2M for 40 minutes at room temperature. In the meantime, cells were counterstained with Evans Blue (Merck).\nFACS analysis: 72 h post-electroporation, single-cell suspension was prepared for FACS analysis. Briefly 0.8.10^6 cells were fixed and permeabilised for 15 min at room temperature with Cytofix/Cytoperm (PharMingen). Cells were stained for 30 min with primary antibodies at a 1:500 dilution in Perm/Wash Buffer (PharMingen). Bound monoclonal antibody was detected by incubation for 30 min at 4° C. with secondary antibody diluted 1:100 in Perm/Wash Buffer. The stained cells were resuspended in PBS prior to analysis using a FACSCalibur 3C (BD Biosciences)."}}}
{"smiles": "C/C(=C\\c1ccc(C(=O)O)cc1)c1ccc2c(c1)C(C)(C)CCC2(C)C", "note": "[TTNPB, (E)-[(tetrahydrotetramethylnaphthalenyl)propenyl]benzoic acid]", "values": [{"measurement": "effect on luciferase activity at 10 μM", "setting": "[1]; Huh7 cells, 72 h (FIG. 4B)", "value": "slightly increased"}]}
{"smiles": "C[C@H](CCCC(C)(C)O)[C@H]1CC[C@H]2[C@@H]3CC=C4C[C@@H](O)CC[C@]4(C)[C@H]3CC[C@]12C", "note": "[25-hydroxycholesterol]", "values": [{"measurement": "effect on luciferase activity at 1 μM", "setting": "[1]; Huh7 cells, 1 μM, 72 h (FIG. 4B)", "value": "did not show any effect on replication"}]}
{"smiles": "C[C@H](CCC(=O)O)[C@H]1CC[C@H]2[C@@H]3[C@H](O)C[C@@H]4C[C@H](O)CC[C@]4(C)[C@H]3C[C@H](O)[C@]12C", "note": "[CA, cholic acid]", "values": [{"measurement": "effect on luciferase activity at 100 μM", "setting": "[1]; Huh7 cells, 72 h (FIG. 4B)", "value": "only weak activity"}]}
{"smiles": "C/C=C1\\C(=O)CC2C3CCC4=CC(=O)CC[C@]4(C)C3CC[C@]12C", "note": "(stereo partly drawn) [GGS, trans-4,17(20)-pregnadiene-3,16-dione]", "values": [{"measurement": "response of genotype 1a replicon to FXR-modulation", "setting": "[2]", "value": "same behaviour as genotype 1b"}, {"measurement": "concentrations toxic for the replicon transfected cells", "setting": "[3]; replicon transfected cells", "value": 40, "unit": "µM"}, {"measurement": "effect of GGS alone on FXR activity", "setting": "FXR; HepG2 cells, bile salt export pump promoter-driven luciferase construct", "value": "had no effect"}, {"measurement": "concentration range antagonizing FXR", "setting": "FXR", "value": "micromolar range"}, {"measurement": "NS4a and NS5a expression", "setting": "[4]; 3 days of treatment", "value": "almost completely abolished"}, {"measurement": "NS5a positive cells by FACS analysis", "setting": "[4]", "value": 4, "unit": "%"}, {"measurement": "mean fluorescence intensity in the positive cells", "setting": "[4]", "value": "very weak fluorescence intensity"}, {"measurement": "inhibition at 20 µM", "setting": "[1]; Hepatitis C virus, Huh-7, Huh7-Lunet cells, 20 μM, 72 h, read-out: inhibition of the replication", "value": "≤ 95", "unit": "%"}, {"measurement": "IC50", "setting": "[1]; Hepatitis C virus, Huh-7, Huh7-Lunet cells, basal replication, 72 h, read-out: inhibitory concentration causing a decrease of half the basal activity (IC50)", "value": "~2000", "unit": "nM"}, {"measurement": "inhibition of the effect of CDCA on replication", "setting": "[1]; Huh7-Lunet cells, CDCA 100 μM, guggulsterone 0.01 μM up to 20 μM, 72 h", "value": "inhibited in a dose-dependent fashion"}, {"measurement": "further decrease of luciferase activity when associated to a given concentration of IFN", "setting": "[1]; Huh7-Lunet cells, GGS 10 μM plus IFN, 72 h", "value": "about 10 fold"}, {"measurement": "inhibition of the basal replication of HCV", "setting": "[1]; Huh7-Lunet cells, absence of BAs stimulation, 72 h", "value": "could also inhibit the basal replication"}]}
{"smiles": "CC(C)CCC[C@@H](C)[C@H]1CC[C@H]2[C@@H]3CC=C4C[C@@H](O)CC[C@]4(C)[C@H]3CC[C@]12C", "note": "[cholesterol]", "values": [{"measurement": "effect on luciferase activity at 10 μM", "setting": "[1]; Huh7 cells, 72 h (FIG. 4B)", "value": "did not show any effect on replication"}]}
{"smiles": "CC(=O)[C@H]1CC[C@H]2[C@@H]3CC=C4C[C@@H](O)CC[C@]4(C)[C@H]3CC[C@]12C", "note": "[pregnenolone]", "values": [{"measurement": "effect on luciferase activity at 10 μM", "setting": "[1]; Huh7 cells, 72 h (FIG. 4B)", "value": "None of these compounds induced any upregulation of the luciferase activity"}]}
{"smiles": "CC(C)CCC(O)[C@@H](C)[C@H]1CC[C@H]2[C@@H]3CC=C4C[C@@H](O)CC[C@]4(C)[C@H]3CC[C@]12C", "note": "(some centres unmarked) [22-hydroxycholesterol]", "values": [{"measurement": "effect on luciferase activity at 5 μM", "setting": "[1]; Huh7 cells, 72 h (FIG. 4B)", "value": "did not show any effect on replication"}]}
{"smiles": "C[C@H](CCC(=O)O)[C@H]1CC[C@H]2[C@@H]3CC[C@@H]4C[C@H](O)CC[C@]4(C)[C@H]3C[C@H](O)[C@]12C", "note": "[DCA, deoxycholic acid]", "values": [{"measurement": "mortality of treated cells compared to untreated", "setting": "[3]; Huh7 cells, 100 μM", "value": "No increase in the mortality"}, {"measurement": "concentration reaching maximum level of luciferase activity", "setting": "[1]; Huh7 cells, 72 h", "value": 100, "unit": "µM"}, {"measurement": "increase of luciferase activity", "setting": "[1]; Huh7 cells, DCA 100 μM, 72 h of treatment, vs untreated R1b cells", "value": 15, "unit": "fold"}, {"measurement": "time over which high levels of luciferase activities could be maintained", "setting": "[1]; Huh7 cells, DCA 100 μM, long-term culture with passages every 3 or 4 days", "value": "more than 2 weeks"}]}
{"smiles": "CC(=O)[C@H]1CC[C@H]2[C@@H]3CCC4=CC(=O)CC[C@]4(C)[C@H]3CC[C@]12C", "note": "[progesterone]", "values": [{"measurement": "effect on luciferase activity at 5 μM", "setting": "[1]; Huh7 cells, 72 h (FIG. 4B)", "value": "None of these compounds induced any upregulation of the luciferase activity"}]}
{"smiles": "C[C@H](CCC(=O)O)[C@H]1CC[C@H]2[C@@H]3[C@H](O)C[C@@H]4C[C@H](O)CC[C@]4(C)[C@H]3CC[C@]12C", "note": "[CDCA, chenodeoxycholic acid]", "values": [{"measurement": "response of genotype 1a replicon to FXR-modulation", "setting": "[2]", "value": "same behaviour as genotype 1b"}, {"measurement": "NS5a positive cells by FACS analysis", "setting": "[4]", "value": 27, "unit": "%"}, {"measurement": "mean fluorescence intensity in the positive cells", "setting": "[4]", "value": 39}, {"measurement": "effect on luciferase activity at 100 μM", "setting": "[1]; Huh7 cells, 72 h (FIG. 4B)", "value": "most potent activator"}, {"measurement": "effect on luciferase activity, dose-response", "setting": "[1]; Huh7 cells, 10, 50 or 100 μM, 72 h", "value": "dose-dependent"}, {"measurement": "concentration reaching maximum level of luciferase activity", "setting": "[1]; Huh7 cells, 72 h", "value": 100, "unit": "µM"}, {"measurement": "lowest concentration with detectable specific activity on luciferase", "setting": "[1]; Huh7 cells, 72 h", "value": 10, "unit": "µM"}, {"measurement": "up-regulation of HCV RNA replication, comparison of free BAs", "setting": "[1]; Huh7 cells, dose-response, 72 h", "value": "more efficiently than DCA"}]}
{"smiles": "CC(C)=CCCC(C)=CCCC(C)=CCO", "note": "[farnesol]", "values": [{"measurement": "effect on luciferase activity at 10 μM", "setting": "[1]; Huh7 cells, 72 h (FIG. 4B)", "value": "slightly increased"}]}
